Results on 3 compounds are retold here after patent US10308602B2, “Organoselenium compounds, method for producing same, and pharmaceutical uses thereof in particular as antitumor agents” (TETRAHEDRON, priority 2014, dated 2019).

What all share (type): cell-based
Assay [1] concerns PC3 cells (prostate). The assay can be described thus: Cytotoxicity, WST-1 cell viability test, PC3. The following applies: Homo sapiens, PC-3, after 96 hours of treatment, read-out: Concentration decreasing by 50% the cell viability. The procedure: (§1) Eight cell lines originating from different types of cancer were used: PC3 and DU145 (prostate), HT-29 and LS-174T (colon), Hep G2 (liver), MCF-7 (breast), MIA PaCa-2 and PANC-1 (pancreas).
(§2) The cells are cultured in the specific culture medium described in Table II, at 37° C., 5% CO2, according to the operating procedures that are well known to the person skilled in the art.
(§3) After thawing and amplification of the cancer cells in the appropriate culture medium (described in 1.2.), 96-well plates are inoculated with these cells and incubated or not incubated (controls) in their respective culture medium, in the presence of the compounds to be tested at 10, 50, 100, 250 and 500 μM.
(§4) After 96 h of incubation, each 96-well plate is analyzed in order to measure the viability of the cells using a colorimetric test with WST-1.

The test system of assay [2] is DU145 cells (prostate). The assay can be described thus: Cytotoxicity, WST-1 cell viability test, DU145. The following applies: Homo sapiens, DU-145, after 96 hours of treatment, read-out: Concentration decreasing by 50% the cell viability. As for the experimental part: as §1, §2, §3, §4
For orientation: Tetrazolium assays rely on reduction of a dye to a coloured formazan, in cell work by metabolically active cells.

In assay [3] the test system is PANC-1 cells (pancreas). The assay can be described thus: Cytotoxicity, WST-1 cell viability test, PANC-1. The following applies: Homo sapiens, after 96 hours of treatment, read-out: Concentration decreasing by 50% the cell viability. As for the experimental part: as §1, §2, §3, §4
Assay [4] has as its system MIA PaCa-2 cells (pancreas). Nature of the assay: Cytotoxicity, WST-1 cell viability test, MIA PaCa-2. The conditions noted are these: Homo sapiens, after 96 hours of treatment, read-out: Concentration decreasing by 50% the cell viability. As for the experimental part: as §1, §2, §3, §4
Assay [5] has as its system HT-29 cells (colon). The assay can be described thus: Cytotoxicity, WST-1 cell viability test, HT-29. The following applies: Homo sapiens, after 96 hours of treatment, read-out: Concentration decreasing by 50% the cell viability. The procedure:
as §1, §2, §3, §4

For assay [6], the system named is LS174T cells (colon). Nature of the assay: Cytotoxicity, WST-1 cell viability test, LS174T. The conditions noted are these: Homo sapiens, after 96 hours of treatment, read-out: Concentration decreasing by 50% the cell viability. The procedure:
as §1, §2, §3, §4

For assay [7], the system named is Hep G2 cells (liver). Nature of the assay: Cytotoxicity, WST-1 cell viability test, Hep G2. The following applies: Homo sapiens, HepG2, after 96 hours of treatment, read-out: Concentration decreasing by 50% the cell viability. The procedure: as §1, §2, §3, §4
Assay [8] concerns MCF-7 cells (breast). Nature of the assay: Cytotoxicity, WST-1 cell viability test, MCF-7. The following applies: Homo sapiens, MCF7, after 96 hours of treatment, read-out: Concentration decreasing by 50% the cell viability. As for the experimental part: as §1, §2, §3, §4

Each structure is given as a SMILES string.

`CCCCCCCCCCCC(=O)OC(C[Se]C)C(=O)O` (stereo not shown) [Compound 38, 2-(dodecanoyloxy)-3-(methylseleno)propanoic acid]: the IC50 in assay [1] amounted to 198 µM; in assay [2] it was 169 µM; in assay [3], 253 µM; in assay [4], 308 µM; in assay [5], 166 µM; in assay [6], 113 µM. Moreover, the IC50 in assay [7] turned out to be 263 µM; in assay [8], 215 µM.
With `CCOC(=O)C(O)C[Se]C` (stereo not shown) [Compound 4, ethyl ester of 2-hydroxy-3-(methylseleno)propanoic acid], the IC50 came to 481 µM in assay [2] and 335 µM in assay [6].
Regarding `C[Se]CC(O)C(=O)O` (stereo not shown) [Compound 10, 2-hydroxy-3-(methylseleno)propanoic acid], the IC50 in assay [2] was found to be 392 µM; in assay [5], 328 µM; in assay [6] it was 430 µM.
